# In ChEMBL document CHEMBL1139687, “Inhibitory effect of carboxylic acid group on hERG binding” (Bioorg Med Chem Lett, 2006):
# Target: Voltage-gated inwardly rectifying potassium channel KCNH2 (Homo sapiens, UniProt Q12809)
# Assay: Displacement of [3H]dofetilide from human ERG potassium channel expressed in HEK293 cells
# Chain of Voltage-gated inwardly rectifying potassium channel KCNH2 (Q12809 whole entry): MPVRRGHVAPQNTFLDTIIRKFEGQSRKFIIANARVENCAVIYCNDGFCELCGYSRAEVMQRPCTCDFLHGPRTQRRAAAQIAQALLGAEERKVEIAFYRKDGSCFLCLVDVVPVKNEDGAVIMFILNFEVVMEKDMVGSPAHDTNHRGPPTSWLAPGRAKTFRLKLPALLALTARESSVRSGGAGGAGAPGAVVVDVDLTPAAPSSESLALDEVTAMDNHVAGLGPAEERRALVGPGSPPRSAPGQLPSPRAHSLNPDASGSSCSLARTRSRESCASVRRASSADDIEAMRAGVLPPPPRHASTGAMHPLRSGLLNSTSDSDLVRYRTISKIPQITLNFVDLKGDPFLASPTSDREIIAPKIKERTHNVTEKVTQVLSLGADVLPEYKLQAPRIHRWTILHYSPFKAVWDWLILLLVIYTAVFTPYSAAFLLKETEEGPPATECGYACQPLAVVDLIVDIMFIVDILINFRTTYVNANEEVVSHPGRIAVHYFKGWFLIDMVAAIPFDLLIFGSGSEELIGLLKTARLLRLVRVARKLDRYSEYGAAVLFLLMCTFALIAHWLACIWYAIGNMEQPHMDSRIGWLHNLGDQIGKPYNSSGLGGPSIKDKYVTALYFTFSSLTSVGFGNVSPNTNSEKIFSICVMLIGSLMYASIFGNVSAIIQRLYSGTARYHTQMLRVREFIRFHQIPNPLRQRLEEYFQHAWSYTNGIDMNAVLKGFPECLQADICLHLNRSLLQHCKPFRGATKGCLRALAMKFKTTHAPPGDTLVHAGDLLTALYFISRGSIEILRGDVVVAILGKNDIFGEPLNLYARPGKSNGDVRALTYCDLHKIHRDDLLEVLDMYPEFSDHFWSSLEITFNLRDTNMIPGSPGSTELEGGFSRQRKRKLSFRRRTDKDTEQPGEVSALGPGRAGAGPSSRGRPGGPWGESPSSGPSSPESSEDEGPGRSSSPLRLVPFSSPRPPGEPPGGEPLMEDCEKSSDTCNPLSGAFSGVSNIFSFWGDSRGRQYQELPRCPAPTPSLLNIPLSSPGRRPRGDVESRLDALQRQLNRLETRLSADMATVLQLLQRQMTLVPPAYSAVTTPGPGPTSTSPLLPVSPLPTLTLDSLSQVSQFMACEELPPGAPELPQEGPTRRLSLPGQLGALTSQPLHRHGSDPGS
row,Structure (SMILES),Ki
1,CC(=N)N1CCC(Oc2ccc(N(Cc3ccc4ccc(C(=N)N)cc4c3)S(=O)(=O)CC(=O)O)cc2)CC1 [YM-60828],> 10000 nM
2,CN(C)C(=N)c1ccc(C(=O)Nc2ccc(Cl)cc2C(=O)Nc2ccc(Cl)cn2)c(N2CCC(C(=O)O)CC2)c1,> 10000 nM
3,CN1CCN=C1c1ccc(C(=O)N2CCN(S(=O)(=O)c3cc4ccc(Cl)cc4s3)CC2CC(=O)N2CCOCC2)cc1 (configuration not stated),600 nM
4,CN(C)C(=N)c1ccc(C(=O)Nc2ccc(Oc3ccc(C(=O)O)cc3)cc2C(=O)Nc2ccc(Cl)cn2)cc1,> 10000 nM
5,COc1cc(Cl)cc(C(=O)Nc2ccc(Cl)cn2)c1NC(=O)c1ccc(C(=N)N2CCC(C(=O)O)CC2)cc1F,> 10000 nM
6,COC(=O)CCc1ccc(NC(=O)c2ccc(C(=N)N(C)C)cc2)c(C(=O)Nc2ccc(Cl)cn2)c1,790 nM
7,COC(=O)c1ccc(Oc2ccc(NC(=O)c3ccc(C(=N)N(C)C)cc3)c(C(=O)Nc3ccc(Cl)cn3)c2)cc1,570 nM
8,Cc1cc(C(=O)Nc2ccc(-c3ccccc3CN3CCCCC3)cc2F)n(-c2cc3ccccc3cc2F)n1,1000 nM
9,N=C(c1ccc(C(=O)Nc2ccc(Cl)cc2C(=O)Nc2ccc(Cl)cn2)cc1)N1CCCC(C(=O)O)C1 (configuration not stated),> 10000 nM
10,CN1CCN=C1c1ccc(C(=O)N2CCN(S(=O)(=O)c3cc4ccc(Cl)cc4s3)CC2CC(=O)N2CCCC(C(=O)O)C2)cc1 (configuration not stated),> 10000 nM
11,CN(C)C(=N)c1ccc(C(=O)Nc2ccc(Cl)cc2C(=O)Nc2ccc(Cl)cn2)cc1,100 nM
12,C/C(=C(\F)C(=O)N(CC(=O)O)c1ccc(-c2ccccc2S(N)(=O)=O)cc1)c1cccc(C(=N)N)c1,> 10000 nM
13,CCOC(=O)C1CCN(C(=N)c2ccc(C(=O)Nc3c(OC)cc(Cl)cc3C(=O)Nc3ccc(Cl)cn3)c(F)c2)CC1,51 nM
14,CN(C)C(=N)c1ccc(C(=O)Nc2ccc(Sc3ccc(C(=O)O)cc3)cc2C(=O)Nc2ccc(Cl)cn2)cc1,4600 nM
15,CN(C)C(=N)c1ccc(C(=O)Nc2ccc(Cl)cc2C(=O)Nc2ccc(Cl)cn2)c(N2CCCCC2C(=O)O)c1 (configuration not stated),> 2000 nM
16,CN(C)C(=N)c1ccc(CN2C(=O)CN(S(=O)(=O)c3cc4cc(Cl)ccc4[nH]3)C[C@@H]2C(=O)O)cc1,> 10000 nM
17,CN(CC(=O)O)C(=N)c1ccc(C(=O)Nc2ccc(Cl)cc2C(=O)Nc2ccc(Cl)cn2)cc1,1400 nM
18,Cc1cc(C(=O)Nc2ccc(C(=N)N3CCCC3)cc2)n(-c2cc3ccccc3cc2C(=O)O)n1,> 10000 nM
19,CN(CCCC(=O)O)C(=N)c1ccc(C(=O)Nc2ccc(Cl)cc2C(=O)Nc2ccc(Cl)cn2)cc1,1400 nM
20,CCOC(=O)C1CCN(C(=N)c2ccc(C(=O)Nc3ccc(Cl)cc3C(=O)Nc3ccc(Cl)cn3)cc2)CC1,17 nM
21,CN(C)C(=N)c1ccc(C(=O)Nc2ccc(Sc3ccc(C(=O)N(C)C)cc3)cc2C(=O)Nc2ccc(Cl)cn2)cc1,370 nM
22,CN(C)C(=N)c1ccc(C(=O)Nc2ccc(Cl)cc2C(=O)Nc2ccc(Cl)cn2)c(N(C)CCCC(=O)O)c1,> 6600 nM
